Source: patent US8895733B2 (Novartis AG, priority 2010, dated 2014)

target: T1, Nav 1.7 (Homo sapiens, UniProt Q15858); assay: Whole-cell voltage clamp electrophysiology, automated patch clamp (marker c in Table of Examples); format: cell-based; settings: marker c = Automated patch clamp data; read-out: Nav 1.7 activity
T1 construct: expressed in transfected cells
Outline: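 A voltage protocol weighted toward inactivated-state block was used to test compounds on stably expressing cells, with pulses from −65 mV holding to −10 mV test and −100 mV. Currents came from whole-cell automated patch-clamp recordings, either IonWorks Quattro or other automated instruments, usually in perforated-patch mode.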

T1 sequence (Q15858 whole entry): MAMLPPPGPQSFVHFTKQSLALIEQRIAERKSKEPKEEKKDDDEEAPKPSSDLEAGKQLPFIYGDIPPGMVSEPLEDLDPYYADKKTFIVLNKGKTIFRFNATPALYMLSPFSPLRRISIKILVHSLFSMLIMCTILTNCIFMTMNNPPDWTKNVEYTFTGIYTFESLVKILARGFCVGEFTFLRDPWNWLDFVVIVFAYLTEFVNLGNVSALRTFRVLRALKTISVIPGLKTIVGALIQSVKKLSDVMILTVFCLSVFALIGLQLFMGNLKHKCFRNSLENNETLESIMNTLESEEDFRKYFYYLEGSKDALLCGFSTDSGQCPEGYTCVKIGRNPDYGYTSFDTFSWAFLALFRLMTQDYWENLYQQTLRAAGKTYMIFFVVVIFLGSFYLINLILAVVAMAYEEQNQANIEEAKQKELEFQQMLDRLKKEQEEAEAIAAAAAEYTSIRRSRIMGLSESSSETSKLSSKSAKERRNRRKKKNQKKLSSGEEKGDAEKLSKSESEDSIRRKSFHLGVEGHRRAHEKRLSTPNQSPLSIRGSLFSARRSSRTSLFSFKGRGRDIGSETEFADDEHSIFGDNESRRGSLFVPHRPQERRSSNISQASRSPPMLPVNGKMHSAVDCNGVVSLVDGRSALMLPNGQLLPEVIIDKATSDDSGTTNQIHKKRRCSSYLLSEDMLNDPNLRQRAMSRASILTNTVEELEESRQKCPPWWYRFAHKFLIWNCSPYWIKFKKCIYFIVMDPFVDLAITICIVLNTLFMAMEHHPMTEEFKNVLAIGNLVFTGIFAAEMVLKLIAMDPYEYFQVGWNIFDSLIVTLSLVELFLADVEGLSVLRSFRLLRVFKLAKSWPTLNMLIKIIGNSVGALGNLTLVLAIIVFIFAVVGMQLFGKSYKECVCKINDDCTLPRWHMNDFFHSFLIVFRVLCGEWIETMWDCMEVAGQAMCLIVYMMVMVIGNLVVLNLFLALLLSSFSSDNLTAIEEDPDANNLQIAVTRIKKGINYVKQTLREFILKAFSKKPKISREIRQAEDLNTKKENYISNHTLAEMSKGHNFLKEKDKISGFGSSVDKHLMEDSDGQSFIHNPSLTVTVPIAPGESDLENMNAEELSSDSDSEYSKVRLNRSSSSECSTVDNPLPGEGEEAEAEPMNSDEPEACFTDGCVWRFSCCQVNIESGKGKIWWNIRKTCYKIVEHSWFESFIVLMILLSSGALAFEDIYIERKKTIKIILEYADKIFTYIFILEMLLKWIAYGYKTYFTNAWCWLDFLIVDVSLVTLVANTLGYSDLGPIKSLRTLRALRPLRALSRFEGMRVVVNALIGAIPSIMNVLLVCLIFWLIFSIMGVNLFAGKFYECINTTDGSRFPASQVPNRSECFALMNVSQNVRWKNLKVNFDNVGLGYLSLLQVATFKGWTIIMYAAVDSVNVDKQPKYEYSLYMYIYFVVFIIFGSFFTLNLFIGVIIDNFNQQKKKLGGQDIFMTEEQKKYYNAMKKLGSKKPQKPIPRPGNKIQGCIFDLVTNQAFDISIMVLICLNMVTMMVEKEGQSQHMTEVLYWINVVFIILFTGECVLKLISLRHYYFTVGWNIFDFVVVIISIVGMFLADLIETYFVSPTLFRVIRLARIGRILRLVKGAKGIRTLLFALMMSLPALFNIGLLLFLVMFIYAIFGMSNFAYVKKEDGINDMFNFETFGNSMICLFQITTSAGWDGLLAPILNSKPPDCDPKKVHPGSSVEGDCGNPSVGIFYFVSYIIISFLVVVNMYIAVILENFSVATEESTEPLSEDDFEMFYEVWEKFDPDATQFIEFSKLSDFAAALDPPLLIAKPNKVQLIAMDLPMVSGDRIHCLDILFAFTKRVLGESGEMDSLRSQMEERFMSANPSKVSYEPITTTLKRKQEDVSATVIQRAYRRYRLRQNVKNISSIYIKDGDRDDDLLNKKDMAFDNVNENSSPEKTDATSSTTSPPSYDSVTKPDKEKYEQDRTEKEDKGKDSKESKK

| Structure (SMILES) | IC50 [nM] |
| --- | --- |
| CN(c1ccccc1)c1nc(N)nc(-c2noc(C(=O)N3CCC(CSCC(F)(F)F)CC3)n2)n1 [Example 401, 2-N-Methyl-2-N-phenyl-6-{5-[(4-{[(2,2,2-trifluoroethyl)sulfanyl]methyl}piperidin-1-yl)carbonyl]-1,2,4-oxadiazol-3-yl}-1,3,5-triazine-2,4-diamine] | 1040 |
| CN(c1ccccc1)c1nc(N)nc(-c2noc(C(=O)N3C[C@@H]4[C@@H](COCC(F)(F)F)[C@@H]4C3)n2)n1 [Example 402, 2-N-methyl-2-N-phenyl-6-(5-{[-6-[(2,2,2-trifluoroethoxy)methyl]-3-azabicyclo[3.1.0]hexan-3-yl]carbonyl}-1,2,4-oxadiazol-3-yl)-1,3,5-triazine-2,4-diamine] | 3970 |
| CN(c1ccccc1)c1nc(N)nc(-c2noc(C(=O)N3C[C@@H]4[C@@H](COCCC(F)(F)F)[C@@H]4C3)n2)n1 [Example 403, 2-N-methyl-2-N-phenyl-6-(5-{[-6-[(3,3,3-trifluoropropoxy)methyl]-3-azabicyclo[3.1.0]hexan-3-yl]carbonyl}-1,2,4-oxadiazol-3-yl)-1,3,5-triazine-2,4-diamine] | 1290 |
| CN(c1ccccc1)c1nc(N)nc(-c2noc(C(=O)N3C[C@@H]4[C@@H](COCC5CC5)[C@@H]4C3)n2)n1 [Example 404, 6-(5-{[-6-[(cyclopropylmethoxy)methyl]-3-azabicyclo[3.1.0]hexan-3-yl]carbonyl}-1,2,4-oxadiazol-3-yl)-2-N-methyl-2-N-phenyl-1,3,5-triazine-2,4-diamine] | 3460 |
| CN(c1ccccc1)c1nc(N)nc(-c2noc(C(=O)N3C[C@@H]4[C@@H](COC5CCCC5)[C@@H]4C3)n2)n1 [Example 405, 6-(5-{[-6-[(cyclopentyloxy)methyl]-3-azabicyclo[3.1.0]hexan-3-yl]carbonyl}-1,2,4-oxadiazol-3-yl)-2-N-methyl-2-N-phenyl-1,3,5-triazine-2,4-diamine] | 1280 |
| CN(c1ccccc1)c1nc(N)nc(-c2noc(C(=O)N3C[C@@H]4[C@@H](COc5ccccc5)[C@@H]4C3)n2)n1 [Example 406, 2-N-methyl-6-(5-{[-6-(phenoxymethyl)-3-azabicyclo[3.1.0]hexan-3-yl]carbonyl}-1,2,4-oxadiazol-3-yl)-2-N-phenyl-1,3,5-triazine-2,4-diamine] | 624 |
| Nc1nc(Nc2ccc(F)c(Cl)c2)nc(-c2noc(-c3ccc(OCC(F)(F)F)nc3)n2)n1 [Example 413, 2-N-(3-Chloro-4-fluorophenyl)-6-{5-[6-(2,2,2-trifluoroethoxy)pyridin-3-yl]-1,2,4-oxadiazol-3-yl}-1,3,5-triazine-2,4-diamine] | 9020 |
| Nc1nc(Nc2ccc(F)c(F)c2)nc(-c2noc(-c3ccc(OCC(F)(F)F)nc3)n2)n1 [Example 416, 2-N-(3,4-difluorophenyl)-6-{5-[6-(2,2,2-trifluoroethoxy)pyridin-3-yl]-1,2,4-oxadiazol-3-yl}-1,3,5-triazine-2,4-diamine] | 1500 |
| CN(c1nc(N)nc(-c2noc(-c3ccc(OCC(F)(F)F)nc3)n2)n1)c1ccc(F)cc1F [Example 417, 2-N-(2,4-difluorophenyl)-2-N-methyl-6-{5-[6-(2,2,2-trifluoroethoxy)pyridin-3-yl]-1,2,4-oxadiazol-3-yl}-1,3,5-triazine-2,4-diamine] | 28 |
| CN(c1ccccc1)c1nc(N)nc(-c2noc(C3CCC(NC(=O)OC(C)(C)C)CC3)n2)n1 (stereo not shown) [Example 423, tert-butyl N-[4-(3-{4-amino-6-[methyl(phenyl)amino]-1,3,5-triazin-2-yl}-1,2,4-oxadiazol-5-yl)cyclohexyl]carbamate] | 684 |
| CC(C)C(=O)NC1CCC(c2nc(-c3nc(N)nc(N(C)c4ccccc4)n3)no2)CC1 (stereo not shown) [Example 425, N-[4-(3-{4-Amino-6-[methyl(phenyl)amino]-1,3,5-triazin-2-yl}-1,2,4-oxadiazol-5-yl)cyclohexyl]-2-methylpropanamide] | 2450 |
| CN(c1ccccc1)c1nc(N)nc(-c2noc(C3CCC(NC(=O)CC4CC4)CC3)n2)n1 (stereo not shown) [Example 426, N-[4-(3-{4-amino-6-[methyl(phenyl)amino]-1,3,5-triazin-2-yl}-1,2,4-oxadiazol-5-yl)cyclohexyl]-2-cyclopropylacetamide] | 6680 |
| CN(c1ccccc1)c1nc(N)nc(-c2noc(C3CCC(NC(=O)CC(F)(F)F)CC3)n2)n1 (stereo not shown) [Example 427, N-[4-(3-{4-amino-6-[methyl(phenyl)amino]-1,3,5-triazin-2-yl}-1,2,4-oxadiazol-5-yl)cyclohexyl]-3,3,3-trifluoropropanamide] | 4920 |
| CN(c1ccccc1)c1nc(N)nc(-c2noc(C3CCC(NC(=O)C(F)(F)F)CC3)n2)n1 (stereo not shown) [Example 428, N-[4-(3-{4-amino-6-[methyl(phenyl)amino]-1,3,5-triazin-2-yl}-1,2,4-oxadiazol-5-yl)cyclohexyl]-2,2,2-trifluoroacetamide] | 5950 |
| CN(c1ccccc1)c1nc(N)nc(-c2noc(C3CCC(Oc4ccccc4)CC3)n2)n1 (stereo not shown) [Example 429, 2-N-methyl-6-[5-(4-phenoxycyclohexyl)-1,2,4-oxadiazol-3-yl]-2-N-phenyl-1,3,5-triazine-2,4-diamine] | 289 |
| Nc1nc(Nc2ccccc2)nc(-c2noc(-c3ncccc3C(F)(F)F)n2)n1 [Example 430, 2-N-phenyl-6-{5-[3-(trifluoromethyl)pyridin-2-yl]-1,2,4-oxadiazol-3-yl}-1,3,5-triazine-2,4-diamine] | 146 |

The next lines start with the values.

| IC50 [nM] | Structure (SMILES) |
| --- | --- |
| 201 | CN(c1cccc(F)c1)c1nc(N)nc(-c2noc(-c3ccc(OCC(F)(F)F)nc3)n2)n1 [Example 407, 2-N-(3-fluorophenyl)-2-N-methyl-6-{5-[6-(2,2,2-trifluoroethoxy)pyridin-3-yl]-1,2,4-oxadiazol-3-yl}-1,3,5-triazine-2,4-diamine] |
| 139 | CN(c1nc(N)nc(-c2noc(-c3ccc(OCC(F)(F)F)nc3)n2)n1)c1ccccc1F [Example 408, 2-N-(2-fluorophenyl)-2-N-methyl-6-{5-[6-(2,2,2-trifluoroethoxy)pyridin-3-yl]-1,2,4-oxadiazol-3-yl}-1,3,5-triazine-2,4-diamine] |
| 261 | CN(c1cccc(Cl)c1)c1nc(N)nc(-c2noc(-c3ccc(OCC(F)(F)F)nc3)n2)n1 [Example 409, 2-N-(3-chlorophenyl)-2-N-methyl-6-{5-[6-(2,2,2-trifluoroethoxy)pyridin-3-yl]-1,2,4-oxadiazol-3-yl}-1,3,5-triazine-2,4-diamine] |
| 1150 | CN(c1ccc(F)cc1)c1nc(N)nc(-c2noc(-c3ccc(OCC(F)(F)F)nc3)n2)n1 [Example 410, 2-N-(4-fluorophenyl)-2-N-methyl-6-{5-[6-(2,2,2-trifluoroethoxy)pyridin-3-yl]-1,2,4-oxadiazol-3-yl}-1,3,5-triazine-2,4-diamine] |
| 82 | Cc1cccc(N(C)c2nc(N)nc(-c3noc(-c4ccc(OCC(F)(F)F)nc4)n3)n2)c1 [Example 412, 2-N-methyl-2-N-(3-methylphenyl)-6-{5-[6-(2,2,2-trifluoroethoxy)pyridin-3-yl]-1,2,4-oxadiazol-3-yl}-1,3,5-triazine-2,4-diamine] |
| 410 | CN(c1ccc(F)c(Cl)c1)c1nc(N)nc(-c2noc(-c3ccc(OCC(F)(F)F)nc3)n2)n1 [Example 414, 2-N-(3-Chloro-4-fluorophenyl)-2-N-methyl-6-{5-[6-(2,2,2-trifluoroethoxy)pyridin-3-yl]-1,2,4-oxadiazol-3-yl}-1,3,5-triazine-2,4-diamine] |
| 567 | COc1cccc(-c2nc(-c3nc(N)nc(N(C)c4ccccc4)n3)no2)n1 [Example 415, 6-[5-(6-methoxypyridin-2-yl)-1,2,4-oxadiazol-3-yl]-2-N-methyl-2-N-phenyl-1,3,5-triazine-2,4-diamine] |
| 1640 | CN(c1ccccc1)c1nc(N)nc(-c2noc(-c3ccc(Cl)nc3)n2)n1 [Example 418, 6-[5-(6-chloropyridin-3-yl)-1,2,4-oxadiazol-3-yl]-2-N-methyl-2-N-phenyl-1,3,5-triazine-2,4-diamine] |
| 1450 | CCOc1ncccc1-c1nc(-c2nc(N)nc(N(C)c3ccccc3)n2)no1 [Example 419, 6-[5-(2-ethoxypyridin-3-yl)-1,2,4-oxadiazol-3-yl]-2-N-methyl-2-N-phenyl-1,3,5-triazine-2,4-diamine] |
| 2300 | CN(c1ccccc1)c1nc(N)nc(-c2noc(-c3ccc(C(F)(F)F)cn3)n2)n1 [Example 420, 2-N-methyl-2-N-phenyl-6-{5-[5-(trifluoromethyl)pyridin-2-yl]-1,2,4-oxadiazol-3-yl}-1,3,5-triazine-2,4-diamine] |
| 1430 | CN(c1ccccc1)c1nc(N)nc(-c2noc(-c3ccc(S(C)(=O)=O)cc3)n2)n1 [Example 421, 6-[5-(4-methanesulfonylphenyl)-1,2,4-oxadiazol-3-yl]-2-N-methyl-2-N-phenyl-1,3,5-triazine-2,4-diamine] |
| 9430 | CN(c1ccccc1)c1nc(N)nc(-c2noc(C3CCC(N)CC3)n2)n1 (stereo not shown) [Example 422, 6-[5-(4-Aminocyclohexyl)-1,2,4-oxadiazol-3-yl]-2-N-methyl-2-N-phenyl-1,3,5-triazine-2,4-diamine] |
| 2810 | CN(c1ccccc1)c1nc(N)nc(-c2noc(C3CCC(O)CC3)n2)n1 (stereo not shown) [Example 424, 4-(3-{4-amino-6-[methyl(phenyl)amino]-1,3,5-triazin-2-yl}-1,2,4-oxadiazol-5-yl)cyclohexan-1-ol] |
| 142 | Nc1nc(Nc2ccccc2)nc(-c2noc(-c3ncccc3Cl)n2)n1 [Example 431, 6-[5-(3-chloropyridin-2-yl)-1,2,4-oxadiazol-3-yl]-2-N-phenyl-1,3,5-triazine-2,4-diamine] |
| 6290 | CN(c1ccc(F)nc1)c1nc(N)nc(-c2noc(-c3ccc(OCC(F)(F)F)nc3)n2)n1 [Example 432, 2-N-(6-Fluoropyridin-3-yl)-2-N-methyl-6-{5-[6-(2,2,2-trifluoroethoxy)pyridin-3-yl]-1,2,4-oxadiazol-3-yl}-1,3,5-triazine-2,4-diamine] |
